Source: PubChem BioAssay (NCI)
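All cell lines were grown in 96-well plates and treated with compound for 48 hours. GI50 is the concentration that inhibits growth by half. TGI denotes the concentration required for complete inhibition of growth.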

Columns and labels:
Assay in all cases: DTP human tumour cell line panel, 48 h
SNB-78 CNS = system: SNB-78 CNS
M19-MEL melanoma = system: M19-MEL melanoma
KM20L2 colon = system: KM20L2 colon
RXF-631 renal = system: RXF-631 renal
DMS 273 small cell lung = system: DMS 273 small cell lung
PC-3 prostate = system: PC-3 prostate
HS 578T breast = system: HS 578T breast
MDA-MB-231 breast = system: MDA-MB-231 breast
T-47D breast = system: T-47D breast
MCF7 breast = system: MCF7 breast

| Structure (SMILES) | TGI (SNB-78 CNS) | TGI (M19-MEL melanoma) | TGI (KM20L2 colon) | TGI (RXF-631 renal) | TGI (DMS 273 small cell lung) | also measured |
| --- | --- | --- | --- | --- | --- | --- |
| O=C(O)CCC1CCc2cccc3occ1c23 (centres undefined) | > 100 µM | > 100 µM | > 100 µM | > 100 µM | > 100 µM |  |
| O=C(Cc1ccccc1)N/N=C(\C1=Nc2ccc([N+](=O)[O-])cc2NC1O)C(O)c1ccc([N+](=O)[O-])cc1 (centres undefined) | > 100 µM | > 100 µM | > 100 µM | > 100 µM |  |  |
| COc1cc(Oc2c(O)c(C)c(OC)c(C(C)=O)c2O)c(C(C)=O)c(O)c1C | > 100 µM | > 100 µM | > 100 µM | > 100 µM | > 100 µM |  |
| COc1ccc2cc3n(c2c1)CCc1cc(OC)c(OC)cc1-3 | > 100 µM | > 100 µM | > 100 µM | > 100 µM | > 100 µM |  |
| COC(=O)C(=O)C(C(=O)C=C(C)C)C(=O)C(=O)Nc1cccc(C(C)=O)c1 (centres undefined) | > 100 µM | > 100 µM | > 100 µM | > 100 µM | > 100 µM |  |
| O=C1C(=O)N(C2C3CC4CC(C3)CC2C4)C(=O)C(=O)C1c1nc2ccccc2o1 (centres undefined) | > 100 µM | > 100 µM | > 100 µM | > 100 µM | > 100 µM |  |
| FC(F)(F)C12C34C=CC5(CCC6(C=CC1(CC3)O6)C52C(F)(F)F)O4 (centres undefined) | > 100 µM | > 100 µM | > 100 µM |  | > 100 µM |  |
| O=C1c2ccccc2C(=O)C1C(c1ccc([N+](=O)[O-])cc1)C1C(=O)c2ccccc2C1=O | > 100 µM |  | > 100 µM | 29.7 µM | > 100 µM |  |
| O=C(Nc1cc(Cl)c(Cl)cc1Cl)C(=O)C(C(=O)c1ccc(Cl)c(Cl)c1)C1OC(=O)c2ccccc21 (centres undefined) | > 100 µM | 37.9 µM | 33 µM |  | 44.5 µM |  |
| N/N=C(\Cc1ccccc1)NN=C(N)N | > 100 µM | > 100 µM |  | > 100 µM |  |  |
| COC(=O)C(Cc1nc2ccc(Cl)cc2[nH]c1=O)C(=O)C(=O)Nc1ccccc1[N+](=O)[O-] (centres undefined) | > 100 µM | > 100 µM | > 100 µM | > 100 µM | > 100 µM |  |
| O=C1CCC2(c3ccccc3)Nc3cc(Cl)ccc3N12 (centres undefined) | > 100 µM | 82.6 µM | > 100 µM | > 100 µM |  |  |
| CCCCCCCCCCCCC(=O)[O-].CCCCCCCCCCCCC(=O)[O-].CCCCCCCCCCCCC(=O)[O-].CCCCCCCCCCCCC(=O)[O-].[Mo+2].[Mo+2] | 67.3 µM | > 100 µM | 34.9 µM | 2.06 µM |  | GI50 (SNB-78 CNS): 19.9 µM; GI50 (M19-MEL melanoma): 18.7 µM; GI50 (KM20L2 colon): 16.2 µM; GI50 (RXF-631 renal): 0.403 µM |
| CC(CCCOC(c1ccccc1)(c1ccccc1)c1ccccc1)OC(=O)Nc1cc([N+](=O)[O-])cc([N+](=O)[O-])c1 (centres undefined) |  | > 100 µM |  | > 100 µM | > 100 µM |  |
| CC(=O)Oc1ccccc1C(=O)C1c2cccc(O)c2C(=O)c2c(O)cccc21 | > 24.8 µM | 2.94 µM | 5.57 µM | 11.1 µM | 3.8 µM |  |
| C/C=C(/CCCCNCCCC)[Si](C)(C)C | 29.7 µM | 33 µM | 21.7 µM | 31.3 µM | 38.2 µM |  |
| Cc1cccc(C(C)(C)C)c1NC(=O)C(=O)C(c1cnc2ccccc2n1)[N+](=O)[O-] (centres undefined) | > 100 µM | > 100 µM | > 100 µM |  | > 100 µM |  |

| Structure (SMILES) | TGI (SNB-78 CNS) | TGI (M19-MEL melanoma) | TGI (KM20L2 colon) | TGI (RXF-631 renal) | TGI (DMS 273 small cell lung) | also measured |
| --- | --- | --- | --- | --- | --- | --- |
| CC(C)=CC(=O)CC(=O)C(=O)Nc1ccc(Cl)c(Cl)c1 | > 100 µM | > 100 µM | > 100 µM |  | > 100 µM |  |
| CCOC(=O)/C(C#N)=C1\N[C@H](C(=O)OCC)CO1 | > 100 µM | > 100 µM | > 100 µM | > 100 µM |  |  |
| O=C1CC2C(=O)N(Cc3ccccc3)C1C(S(=O)(=O)c1ccccc1)C2S(=O)(=O)c1ccccc1 (centres undefined) | 36.1 µM | 4.09 µM | 7.4 µM | 28.1 µM | 18.6 µM |  |
| COc1ccc2c(C(=O)O)cc3cc(OC)c(OC)cc3c2c1 | > 100 µM | > 100 µM | > 100 µM | > 100 µM | > 100 µM |  |
| COc1ccc(COCC(Cn2ccnc2)OCc2ccc(C(=O)O)cc2)cc1 (centres undefined) | > 100 µM | > 100 µM | > 100 µM | > 100 µM |  |  |
| O=c1cccccc1NCCCCCCCCCNc1cccccc1=O | 82.4 µM | 51 µM | 77.5 µM |  | 32.6 µM |  |
| CC1CC2(CC[C@@H]1O)OCCO2 (some centres undefined) | > 100 µM | > 100 µM |  | > 100 µM | > 100 µM |  |
| Cc1c2ccncc2c(C)c2c1[nH]c1ccc(OC(C)(C)C)cc12 | 6.53 µM | 5.54 µM | 11.1 µM | 6.58 µM | 4.36 µM |  |
| O=c1[nH]cc(OCC(F)(F)F)c(=O)[nH]1 | > 100 µM | > 100 µM | > 100 µM | > 100 µM | > 100 µM |  |
| CCSc1nc(COC(=O)NC)c(COC(=O)NC)n1C | > 85.9 µM | > 79.9 µM | > 100 µM | > 100 µM | > 100 µM | TGI (PC-3 prostate): > 100 µM; TGI (HS 578T breast): > 100 µM; TGI (MDA-MB-231 breast): > 100 µM; TGI (T-47D breast): > 100 µM; TGI (MCF7 breast): > 100 µM |
| CCOC(=O)N1C2C=C(C)C(C3C(C)C(=O)N31)N(C(=O)c1ccccc1)O2 (centres undefined) | > 100 µM | > 100 µM |  | > 100 µM | > 100 µM |  |
| CN(C)C(=O)C1CCC(=C2C(=O)OC(C)(C)OC2=O)N1C (centres undefined) | > 100 µM | > 100 µM | > 100 µM |  | > 100 µM |  |
| Clc1ccc(CN2COc3c(cc(Cl)c4cccnc34)C2)cc1 | 17.9 µM | 6.06 µM | 27.5 µM | 23.1 µM | 3.53 µM |  |
| Cc1cccc(C)c1NC(=O)CCCC(=O)C1CCC/C1=N\NC(=O)C(=O)NN (centres undefined) | > 100 µM |  | > 100 µM | > 100 µM | > 100 µM |  |
| CCC1CN2CCc3cc(OC)c(OC)cc3C2CC1CC1c2cc(OC)c(OC)cc2CCN1C(=O)CNC(=O)OC(C)(C)C (centres undefined) | 51 µM | 61.2 µM | 90.6 µM | > 100 µM | 37.8 µM |  |
| O=C(O)c1c[nH]cc1C(=O)O | > 100 µM | > 100 µM | > 100 µM |  | > 100 µM |  |
